# Columns and labels:
# [1] = target: T1, Sodium-dependent dopamine transporter (Rattus norvegicus, UniProt P23977); experiment: Functional cocaine antagonism was evaluated by inhibition of [3H]dopamine reuptake at a concentration of 30 nM with cocaine
# [2] = In vitro Ki against [3H]mazindol binding.
# [3] = target: Sodium-dependent serotonin transporter (Rattus norvegicus, UniProt P31652); experiment: Inhibition of [3H]5-HT uptake at Serotonin transporter in rat mid brain
# [4] = target: T1, Sodium-dependent dopamine transporter; experiment: Functional cocaine antagonism was evaluated by inhibition of [3H]dopamine reuptake
# [5] = target: Norepinephrine transporter (Rattus norvegicus, UniProt Q9WTR4); experiment: Inhibition of [3H]NE uptake at Norepinephrine transporter in rat parietal/occipital cortex was determined
# [6] = target: T1, Sodium-dependent dopamine transporter; experiment: Inhibition of [3H]DA uptake at Dopamine transporter in rat cortex.
# [7] = target: T1, Sodium-dependent dopamine transporter; experiment: Functional cocaine antagonism was evaluated by inhibition of [3H]dopamine reuptake at a concentration of 100 nM with cocaine
# [8] = target: T1, Sodium-dependent dopamine transporter; experiment: Functional cocaine antagonism was evaluated by inhibition of [3H]dopamine reuptake at a concentration of 300 nM with cocaine
# T1 sequence (P23977 whole entry): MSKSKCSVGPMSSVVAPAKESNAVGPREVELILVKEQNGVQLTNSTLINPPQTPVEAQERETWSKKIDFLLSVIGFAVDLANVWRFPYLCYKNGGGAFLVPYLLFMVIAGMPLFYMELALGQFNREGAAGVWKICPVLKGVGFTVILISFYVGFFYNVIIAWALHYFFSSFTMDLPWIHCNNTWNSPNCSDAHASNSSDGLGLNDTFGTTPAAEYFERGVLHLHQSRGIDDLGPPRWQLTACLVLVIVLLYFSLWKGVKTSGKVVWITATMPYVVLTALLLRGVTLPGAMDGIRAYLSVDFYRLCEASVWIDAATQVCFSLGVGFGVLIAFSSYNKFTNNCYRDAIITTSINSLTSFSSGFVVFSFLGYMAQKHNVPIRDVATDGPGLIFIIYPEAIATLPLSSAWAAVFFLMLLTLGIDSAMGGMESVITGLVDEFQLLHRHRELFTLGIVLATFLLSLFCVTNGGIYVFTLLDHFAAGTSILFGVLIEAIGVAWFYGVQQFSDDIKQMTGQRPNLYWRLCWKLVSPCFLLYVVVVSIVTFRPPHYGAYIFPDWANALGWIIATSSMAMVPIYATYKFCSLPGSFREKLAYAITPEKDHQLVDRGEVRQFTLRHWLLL
# Norepinephrine transporter, sequence (Q9WTR4 whole entry): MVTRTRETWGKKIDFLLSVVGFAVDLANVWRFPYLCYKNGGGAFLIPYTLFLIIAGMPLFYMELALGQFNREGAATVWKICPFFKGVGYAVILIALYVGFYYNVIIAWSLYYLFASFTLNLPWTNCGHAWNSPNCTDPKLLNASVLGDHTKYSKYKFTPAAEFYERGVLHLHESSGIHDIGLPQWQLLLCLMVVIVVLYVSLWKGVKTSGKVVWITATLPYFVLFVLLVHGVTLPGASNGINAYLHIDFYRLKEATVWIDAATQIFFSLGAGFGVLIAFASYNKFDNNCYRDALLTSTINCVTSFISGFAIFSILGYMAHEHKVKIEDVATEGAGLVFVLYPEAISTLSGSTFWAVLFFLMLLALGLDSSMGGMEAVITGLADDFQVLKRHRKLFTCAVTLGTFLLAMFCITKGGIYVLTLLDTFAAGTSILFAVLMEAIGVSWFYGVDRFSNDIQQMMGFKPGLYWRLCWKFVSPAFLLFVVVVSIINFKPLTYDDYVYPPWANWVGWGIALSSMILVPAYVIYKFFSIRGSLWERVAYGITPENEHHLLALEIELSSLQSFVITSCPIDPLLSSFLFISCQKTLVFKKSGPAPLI
# Sodium-dependent serotonin transporter, sequence (P31652 whole entry): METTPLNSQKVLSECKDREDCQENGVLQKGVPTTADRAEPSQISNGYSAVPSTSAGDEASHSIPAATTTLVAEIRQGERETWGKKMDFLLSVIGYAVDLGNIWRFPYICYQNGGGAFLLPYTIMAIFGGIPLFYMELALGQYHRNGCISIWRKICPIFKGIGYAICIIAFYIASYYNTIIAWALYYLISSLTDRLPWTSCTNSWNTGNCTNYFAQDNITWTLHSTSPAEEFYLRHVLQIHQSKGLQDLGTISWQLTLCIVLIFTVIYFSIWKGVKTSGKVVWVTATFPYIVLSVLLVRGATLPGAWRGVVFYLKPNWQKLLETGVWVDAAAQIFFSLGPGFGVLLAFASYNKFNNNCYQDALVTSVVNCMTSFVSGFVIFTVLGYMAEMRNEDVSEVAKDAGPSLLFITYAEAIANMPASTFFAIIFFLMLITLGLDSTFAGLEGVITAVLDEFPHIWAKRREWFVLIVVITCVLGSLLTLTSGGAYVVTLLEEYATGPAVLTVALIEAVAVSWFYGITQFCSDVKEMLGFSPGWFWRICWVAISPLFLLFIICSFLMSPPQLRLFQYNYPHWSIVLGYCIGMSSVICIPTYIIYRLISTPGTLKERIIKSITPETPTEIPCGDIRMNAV
smiles,measurement,setting,value
CN1C[C@@H](C(=O)c2cccs2)[C@H](c2ccc(Cl)cc2)C1,IC50,[1],0.046 µM
same,Ki,[2],0.084 µM
same,Ki,[3],0.23 µM
same,IC50,[4],0.308 µM
same,Ki,[5],0.031 µM
same,Ki,[6],0.2 µM
same,IC50,[7],0.641 µM
CN1C[C@@H](C(=O)c2ccc(Cl)cc2)[C@H](c2ccc(Cl)cc2Cl)C1,Ki,[6],1.26 µM
CN1C[C@@H](C(=O)c2ccc(F)cc2)[C@H](c2ccc(F)cc2)C1,Ki,[3],0.38 µM
same,Ki,[5],0.8 µM
same,Ki,[6],3.96 µM
COc1ccccc1C(=O)[C@@H]1CN(c2ccccc2)C[C@H]1c1ccc(Cl)cc1,Ki,[6],> 10 µM
CN1C[C@@H](C(=O)c2ccc(Cl)cc2)[C@H](c2ccccc2)C1,Ki,[2],1.25 µM
same,Ki,[3],0.52 µM
same,Ki,[5],0.43 µM
same,Ki,[6],1.22 µM
O=C(c1ccccc1)[C@@H]1CN(c2ccccc2)C[C@H]1c1ccc(Cl)cc1,Ki,[6],> 10 µM
CN1C[C@@H](C(=O)c2ccccn2)[C@H](c2ccccc2)C1,Ki,[2],0.51 µM
same,IC50,[8],0.645 µM
same,Ki,[3],0.83 µM
same,IC50,[4],0.663 µM
same,Ki,[6],0.63 µM
same,IC50,[7],0.494 µM
"COC(=O)[C@@H]1C2CC[C@@H](C[C@@H]1OC(=O)c1ccccc1)N2C (single isomer, unassigned) [COCAINE]",Ki,[2],0.23 µM
CN1C[C@@H](C(=O)c2ccccc2)[C@H](c2ccccc2)C1,Ki,[2],1.18 µM
same,Ki,[3],0.75 µM
same,Ki,[5],0.15 µM
same,Ki,[6],1.41 µM
O=C(c1cccs1)[C@@H]1CN(c2ccccc2)C[C@H]1c1ccccc1,Ki,[2],> 10 µM
same,Ki,[3],> 10 µM
same,Ki,[5],> 10 µM
same,Ki,[6],> 10 µM
Cc1ccc([C@@H]2CN(c3ccccc3)C[C@H]2C(=O)c2ccc(F)cc2)cc1,Ki,[6],> 10 µM
COc1ccc(C(=O)[C@@H]2CN(C)C[C@H]2c2ccc(Cl)cc2)cc1,Ki,[6],1.16 µM
CN1C[C@@H](C(=O)c2cccc(C(F)(F)F)c2)[C@H](c2ccc(Cl)cc2)C1,Ki,[6],3.17 µM
CN1C[C@@H](C(=O)c2ccccc2Cl)[C@H](c2ccc(Cl)cc2)C1,Ki,[2],0.34 µM
same,Ki,[3],0.54 µM
same,Ki,[5],0.069 µM
same,Ki,[6],0.61 µM
Cc1ccc([C@@H]2CN(C)C[C@H]2C(=O)c2ccccc2F)cc1,Ki,[6],1.93 µM
CN1C[C@@H](C(=O)c2ccc(Cl)cc2)[C@H](c2ccccc2F)C1,Ki,[6],1.28 µM
O=C(c1ccccn1)[C@@H]1CN(c2ccccc2)C[C@H]1c1ccccc1,Ki,[2],> 10 µM
same,Ki,[3],> 10 µM
same,Ki,[5],> 10 µM
same,Ki,[6],> 10 µM

# Source: ChEMBL document CHEMBL1134711, “Pharmacophore-based discovery of 3,4-disubstituted pyrrolidines as a novel class of monoamine transporter inhibitors” (Bioorg Med Chem Lett, 2001)
